Some test systems named below: TK-10; NCI-H23; HCT-116; HT-29; SK-MEL-28; CCRF-CEM; Malme-3M; OVCAR-3; SK-OV-3; U-251; NCI-H522; KM12; MOLT-4; OVCAR-5; COLO 205; NCI-H460; CAKI-1; NCI-H226; OVCAR-8; RXF 393.
Common to all, as to experiment: NCI tumour cell line growth inhibition, 48 h

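Cells were grown in 96-well plates and exposed to each compound for 48 hours at five concentrations; endpoints were interpolated linearly between bracketing concentrations, or set to the highest concentration if not reached. Abbreviation: GI50, concentration required for 50% inhibition of growth.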 Activity calls are given as the source filed them. Cut-off read from the data, not from the text of the source: active = GI50 up to about 1.1 µM and inactive = higher.

On to `COC(C/C=C\C=C\CC/C=C/CC(C)/C=C/C(=C\C(=O)O)CC(=O)O)/C(C)=C\C=C(/C)C(=O)O` (stereo not given), for which the GI50 in the assay on TK-10, with NCI-H23, with HCT-116, in the assay on HT-29, in the assay on SK-MEL-28 and in the assay on CCRF-CEM was > 100 µM (inactive) in each case. Further, the GI50 with Malme-3M, in the assay with OVCAR-3, in the assay on SK-OV-3, in the assay on U-251, in the assay on NCI-H522 and in the assay with KM12 was > 100 µM (inactive) each time. The GI50 with MOLT-4, in the assay on OVCAR-5, in the assay on COLO 205, with NCI-H460 and in the assay with CAKI-1 was > 100 µM (inactive) each time.

`Cc1ccc(/N=N/NCCCCN/N=N/c2ccc(C)cc2)cc1`: the GI50 in the assay on TK-10 is 1.65 µM (inactive); in the assay with NCI-H226 it was > 100 µM (inactive); with NCI-H23, 9.25 µM (inactive); with HCT-116, 65.8 µM (inactive); with HT-29 it was > 100 µM (inactive); in the assay on OVCAR-8 it was 27.4 µM (inactive). Further, the GI50 was > 100 µM (inactive) with SK-MEL-28; 1 µM (active) in the assay on CCRF-CEM; > 100 µM (inactive) with Malme-3M; > 100 µM (inactive) with OVCAR-3; > 100 µM (inactive) in the assay with SK-OV-3; > 100 µM (inactive) with U-251. The GI50 in the assay on RXF 393 was > 100 µM (inactive); in the assay on MOLT-4 it was 14.2 µM (inactive); with OVCAR-5 it was > 100 µM (inactive); in the assay on COLO 205, 35.4 µM (inactive); in the assay with NCI-H460, 12.5 µM (inactive); in the assay with CAKI-1 it was > 100 µM (inactive).

`Cc1cn(C2CC(O)C(Cn3nncc3Cn3ncc(=O)[nH]c3=O)O2)c(=O)[nH]c1=O` (stereo not given): the GI50 in the assay on TK-10, in the assay on NCI-H226, in the assay on NCI-H23, in the assay with HCT-116, in the assay with OVCAR-8 and in the assay on SK-MEL-28 was > 100 µM (inactive) throughout. The GI50 with CCRF-CEM was > 100 µM (inactive); in the assay with Malme-3M, > 100 µM (inactive); in the assay with OVCAR-3 it was > 100 µM (inactive); with SK-OV-3, 77.1 µM (inactive); in the assay with U-251 it was > 100 µM (inactive); with RXF 393 it was > 100 µM (inactive). The GI50 in the assay with KM12, in the assay on MOLT-4, with OVCAR-5, in the assay on COLO 205 and with CAKI-1 was > 100 µM (inactive) each time.

Consider `CCCCOC(=O)CN1C(=O)c2ccccc2C1=O`, for which the GI50 with TK-10, in the assay on NCI-H226, in the assay on NCI-H23, in the assay with HCT-116, in the assay with HT-29 and with OVCAR-8 was > 100 µM (inactive) throughout. Moreover, the GI50 in the assay on SK-MEL-28, in the assay on Malme-3M, in the assay on OVCAR-3, in the assay with SK-OV-3, in the assay with U-251 and in the assay on RXF 393 was > 100 µM (inactive) in each case. Further, the GI50 in the assay on NCI-H522, with KM12, in the assay with MOLT-4, with OVCAR-5, in the assay on COLO 205 and in the assay on NCI-H460 was > 100 µM (inactive) in each case. The GI50 with CAKI-1 is 84.5 µM (inactive).

Turning to `CCC1=NC(C(F)(F)F)(C(F)(F)F)N=C(N2CCOCC2)O1`, the GI50 in the assay with TK-10, with NCI-H23, with HCT-116, with HT-29, with OVCAR-8 and with SK-MEL-28 was > 100 µM (inactive) throughout. The GI50 in the assay on CCRF-CEM, with OVCAR-3, in the assay with SK-OV-3, in the assay with U-251, with RXF 393 and with NCI-H522 was > 100 µM (inactive) throughout. The GI50 in the assay on KM12 was > 100 µM (inactive); with MOLT-4, > 100 µM (inactive); with OVCAR-5, > 100 µM (inactive); in the assay with COLO 205, > 100 µM (inactive); in the assay on NCI-H460, > 100 µM (inactive); in the assay with CAKI-1, 34.5 µM (inactive).

As for `CC1(C)CCc2cc3c(-c4ccccc4)cc(=O)oc3cc2O1`, the GI50 in the assay with TK-10, in the assay with NCI-H226, in the assay with NCI-H23, in the assay on HT-29, in the assay on OVCAR-8 and with SK-MEL-28 was > 100 µM (inactive) throughout. The GI50 in the assay on CCRF-CEM, in the assay with Malme-3M, in the assay with OVCAR-3, in the assay on SK-OV-3, in the assay on U-251 and in the assay with NCI-H522 was > 100 µM (inactive) in each case. The GI50 in the assay with MOLT-4, in the assay on COLO 205, with NCI-H460 and in the assay with CAKI-1 was > 100 µM (inactive) in each case.

On to `COC(c1ccc(C(C)(C)C)cc1)(c1ccc(C(C)(C)C)cc1)c1cc(C(O)(c2cc(C(OC)(c3ccc(C(C)(C)C)cc3)c3ccc(C(C)(C)C)cc3)c(C)cc2C)c2cc(C(OC)(c3ccc(C(C)(C)C)cc3)c3ccc(C(C)(C)C)cc3)c(C)cc2C)c(C)cc1C`, for which the GI50 was > 100 µM (inactive) with TK-10; 92.5 µM (inactive) in the assay with NCI-H226; > 100 µM (inactive) in the assay with NCI-H23; > 100 µM (inactive) in the assay on HCT-116; > 100 µM (inactive) in the assay with HT-29; > 100 µM (inactive) in the assay on OVCAR-8. Also, the GI50 in the assay with SK-MEL-28, in the assay with CCRF-CEM, in the assay on Malme-3M, in the assay with OVCAR-3, in the assay with SK-OV-3 and in the assay with U-251 was > 100 µM (inactive) in each case. The GI50 in the assay on RXF 393, in the assay with MOLT-4, in the assay with OVCAR-5, with COLO 205, with NCI-H460 and in the assay with CAKI-1 was > 100 µM (inactive) in each case.

In the case of `CCOC(=O)c1csc(NC(=O)CN(C)C)n1`, the GI50 with TK-10, with NCI-H226, in the assay with NCI-H23, in the assay on HT-29, in the assay with OVCAR-8 and in the assay with SK-MEL-28 was > 100 µM (inactive) each time. The GI50 with CCRF-CEM, in the assay with OVCAR-3, with SK-OV-3, with U-251, with RXF 393 and in the assay with KM12 was > 100 µM (inactive) each time. Further, the GI50 with MOLT-4, with OVCAR-5, with COLO 205, in the assay on NCI-H460 and in the assay with CAKI-1 was > 100 µM (inactive) in each case.

In the case of `O=c1c2ccccc2[nH]c2cc(O)cc(O)c12`, the GI50 with TK-10 is > 100 µM (inactive); in the assay with NCI-H226, 27.2 µM (inactive); in the assay with NCI-H23, 22.9 µM (inactive); with HCT-116 it was 55.6 µM (inactive); in the assay with HT-29 it was 40.2 µM (inactive); in the assay on OVCAR-8, 30.6 µM (inactive). For the same molecule, the GI50 was > 100 µM (inactive) with SK-MEL-28; 49 µM (inactive) with CCRF-CEM; 56.8 µM (inactive) in the assay on Malme-3M; 53.1 µM (inactive) in the assay with OVCAR-3; 85.5 µM (inactive) in the assay on SK-OV-3; 79.3 µM (inactive) in the assay on U-251. Moreover, the GI50 was > 100 µM (inactive) in the assay on RXF 393; 16.9 µM (inactive) in the assay with NCI-H522; 34.9 µM (inactive) in the assay on KM12; 34.2 µM (inactive) in the assay with MOLT-4; 32.8 µM (inactive) in the assay with NCI-H460.

On to `CCOc1ccc(C(C)c2cc3c(cc2OC)OCO3)cc1` (stereo not given), for which the GI50 with TK-10 was 0.353 µM (active); in the assay on NCI-H226, 0.207 µM (active); in the assay with NCI-H23 it was 0.267 µM (active); in the assay on HCT-116, 0.371 µM (active); in the assay on HT-29, 0.237 µM (active); in the assay with OVCAR-8, 0.424 µM (active). Besides, the GI50 with Malme-3M is 0.457 µM (active); with OVCAR-3 it was 0.221 µM (active); in the assay on SK-OV-3, 0.32 µM (active); in the assay with U-251 it was 0.38 µM (active); in the assay with RXF 393 it was 0.222 µM (active); in the assay with NCI-H522, 0.0316 µM (active). Further, the GI50 in the assay on MOLT-4 was 0.396 µM (active); in the assay on OVCAR-5, 65.5 µM (inactive); with NCI-H460 it was 0.34 µM (active); in the assay on CAKI-1, 0.834 µM (active).

As for `C=C(C)C1CC2=C(O1)C(=O)c1ccccc1C2=O` (stereo not drawn) [DEHYDROISO-ALPHA-LAPACHONE], the GI50 with TK-10 is 23 µM (inactive); in the assay on NCI-H226, > 10 µM (inactive); with NCI-H23, 18.9 µM (inactive); in the assay with HT-29 it was 20.9 µM (inactive); in the assay with OVCAR-8, 17.3 µM (inactive); with SK-MEL-28, 19 µM (inactive). The GI50 was 16.3 µM (inactive) in the assay with CCRF-CEM; 18.9 µM (inactive) in the assay on OVCAR-3; > 100 µM (inactive) in the assay with SK-OV-3; 16.5 µM (inactive) in the assay with U-251; 18.9 µM (inactive) in the assay with RXF 393; 20.7 µM (inactive) with NCI-H522. Further, the GI50 in the assay on KM12 is 18.3 µM (inactive); in the assay on MOLT-4, 10.6 µM (inactive); in the assay with COLO 205, 19.3 µM (inactive); in the assay with NCI-H460 it was 17.7 µM (inactive); in the assay with CAKI-1, 17.6 µM (inactive).

For the origin of these results see ChEMBL document CHEMBL1201862, “PubChem BioAssay data set” (2004).
